According to US20240383853A1, “OXIMES AND THEIR USE IN TREATMENT OF GBA-RELATED DISEASES” (ZEVRA DENMARK A/S, priority 2021, published 2024):
Structures can show the parent of a compound that is named as a salt. Marks after values point to notes of the source that are not given here.

Molecular target: T1, glucosylceramidase (GCase, GBA) in human fibroblast cell line GM10915 harboring the L444P GBA mutation (Homo sapiens, UniProt P04062, L483P)
T1 construct: Human fibroblast cell line GM10915 harboring the L444P GBA mutation; host or cells: GM10915 human fibroblasts
T1 sequence (P04062 40-536 L483P): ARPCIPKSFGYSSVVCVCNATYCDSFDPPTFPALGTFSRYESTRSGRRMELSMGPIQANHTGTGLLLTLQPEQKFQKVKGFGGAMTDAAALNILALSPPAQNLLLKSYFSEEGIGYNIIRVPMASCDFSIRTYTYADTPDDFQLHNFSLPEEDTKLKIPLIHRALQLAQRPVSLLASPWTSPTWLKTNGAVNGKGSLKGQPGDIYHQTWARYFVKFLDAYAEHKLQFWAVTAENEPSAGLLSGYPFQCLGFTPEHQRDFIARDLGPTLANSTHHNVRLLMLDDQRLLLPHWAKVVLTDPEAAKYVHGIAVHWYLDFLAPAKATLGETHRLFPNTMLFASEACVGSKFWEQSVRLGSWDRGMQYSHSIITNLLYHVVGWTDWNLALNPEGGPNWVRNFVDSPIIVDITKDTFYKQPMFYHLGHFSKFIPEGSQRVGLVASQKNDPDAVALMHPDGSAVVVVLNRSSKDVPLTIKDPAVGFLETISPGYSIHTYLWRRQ
Assay: GCase activity assay (4-MUG substrate, normalised to crystal violet staining) in GM10915 fibroblasts
Format: cell-based
Settings: five days exposure; for GBA EC1.5: concentration where Percent GCase activity = 150% (1.5-fold induction), 8-point dose range; for GBA Emax / Emax: maximum Percent GCase activity relative to untreated cells in the dose range tested
Description: Human fibroblast cell line GM10915 harboring the L444P GBA mutation was obtained from Coriell Biorepositories. All chemicals (Glacial acetic acid, Glycine, 4-Methylumbelliferyl b-D-glucopyranoside (4-MUG), Sodium acetate trihydrate, Sodium hydroxide, Crystal violet, SDS, Ammonium hydroxide) were obtained from Sigma-Aldrich (Denmark). Compounds tested for GCase activity were dissolved in H2O or DMSO.
The GM10915 cell line was cultured under standard cell culture conditions (37° C. and 5% CO2) in complete DMEM medium supplemented with nonessential amino acids (NEAA), 1% Pen-Strep and 12% FCS. Cells were seeded at a density of 10^4 cells/well in 100 μL complete medium in one black 96-well plate for glucosylceramidase (GCase) activity measurement and in one clear 96-well plate for crystal violet staining to correct for cell density. Crystal violet staining is performed to obtain quantitative information about the relative density of cells adhering to multi-wells plates.
The assay was adapted from Sawkar et al (2002) and briefly described in the following. The day after seeding of cells, the medium was replaced with fresh medium containing the compounds to be tested. Compounds were tested in duplicate and in an 8-point diluted dose range to obtain a dose response. Cells were exposed with compounds for five days. Fresh compound was added every 2-3 days. PBS was included to define the basal level of GCase activity.
Cells were washed three times with 200 μL PBS per well and 50 μL of 2.5 mM 4-MUG buffer (4-MUG dissolved in 0.2 M acetate buffer pH 4.0) was added and the cells were incubated at 37° C., 5% CO2 for 23 hours. The reaction was stopped by adding 150 μL 0.2 M glycine buffer (pH 10.8). Fluorescence was measured with a Varioskan® Flash reader (Thermo Scientific) at an excitation/emission setting of 365/445 nm.
Cells were treated with compounds in a parallel setup identical to the setup to test for GCase activity. At the end of compound treatment, cells were washed once with 200 μL PBS per well and 50 μL 0.1% w/v crystal violet (in H2O) was added. Following 10 min. of incubation, the crystal violet solution was removed, and the cells were washed three times with 200 μL PBS and 100 μL 1% SDS was added to solubilize the stain. The plate was agitated on an orbital shaker for 10-30 min. Absorbance (A) is measured at […] using a Varioskan® Flash reader (Thermo Scientific).
The fluorescence signal (F) derived from the GCase measurement is normalized to the absorbance signal (A) derived from the crystal violet staining. The percent GCase activity resulting from compound treatment is calculated relative to the basal activity obtained from untreated cells.
Maximal effect of compounds (Emax) is determined from the dose response effects as the maximum “Percent GCase activity” achieved in the dose range tested.

| Compound | GBA EC1.5 | GBA Emax [%] | Emax [%] | GBA EC1.5 (listed as 419) [µM] | GBA Emax (listed as 419) [%] |
| --- | --- | --- | --- | --- | --- |
| 4-(3-chloropyridin-4-yl)-N-(2-hydroxy-3-(piperidin-1-yl)propoxy)piperidine-4-carbimidoyl chloride tri-2,2,2-trifluoroacetate [ID 535] | 36 µM | 186 | – | – | – |
| CC1(C(Cl)=NOC[C@@H](O)CN2CCCCC2)CCNCC1 (single isomer, unassigned) [ID 384] | 32 µM | – | 352 | – | – |
| CC1(C(Cl)=NOCC(O)CN2CC3CC3C2)CCNCC1 (single isomer, unassigned) [ID 403, N-(3-(3-azabicyclo[3.1.0]hexan-3-yl)-2-hydroxypropoxy)-4-methylpiperidine-4-carbimidoyl chloride di-2,2,2-trifluoroacetate] | 48 µM | – | 264 | – | – |
| CC1(C(Cl)=NOCC(O)CN2CC3CCC2C3)CCNCC1 (single isomer, unassigned) [ID 410, N-(3-(2-azabicyclo[2.2.1]heptan-2-yl)-2-hydroxypropoxy)-4-methylpiperidine-4-carbimidoyl chloride di-2,2,2-trifluoroacetate] | 43 µM | – | 344 | – | – |
| CN1CCN(CC(O)CON=C(Cl)C2(Cc3cccnc3)CCNCC2)CC1 (single isomer, unassigned) [ID 513, N-(2-hydroxy-3-(4-methylpiperazin-1-yl)propoxy)-4-(pyridin-3-ylmethyl)piperidine-4-carbimidoyl chloride tetra-2,2,2-trifluoroacetate] | 35 µM | – | 174 | – | – |
| CN(C)CCC(Br)=NOCC(O)CN1CCCCC1 (single isomer, unassigned) [ID 532, 3-(dimethylamino)-N-(2-hydroxy-3-(piperidin-1-yl)propoxy)propanimidoyl bromide] | 30 µM | – | 239 | – | – |
| CC1(/C(Cl)=N/OC[C@H](O)CN2CCCCC2)CCNCC1 (stereo in doubt) [ID 387, (R)—N-(2-hydroxy-3-(piperidin-1-yl)propoxy)-4-methylpiperidine-4-carbimidoyl chloride di-2,2,2-trifluoroacetate] | 35 µM | – | 379 | – | – |
| Nc1c(Br)cc(Br)cc1CN[C@H]1CC[C@H](O)CC1 [Ambroxol, reference compound] | >20* *The 1.5-fold induction criteria was not reached within the tested concentration range μM | – | 127 | – | – |
| [O-][n+]1cccc(/C(Br)=N/OCC(O)CN2CCCCC2)c1 (centres unmarked) [ID 257] | 35 µM | – | 307 | – | – |
| CC1(/C(Cl)=N/OCC(O)CN2CCCCC2)CCNCC1 (centres unmarked) [ID 336, N-(2-hydroxy-3-(piperidin-1-yl)propoxy)-4-methylpiperidine-4-carbimidoyl chloride dihydrochloride] | 37 µM | – | 320 | – | – |
| [O-][n+]1ccc(/C(Br)=N/OCC(O)CN2CCCCC2)cc1 (centres unmarked) [ID 352] | 45 µM | – | 474 | – | – |
| CC1(/C(Cl)=N/OCC(O)CN2CCC(F)CC2)CCNCC1 (centres unmarked) [ID 399, N-(3-(4-fluoropiperidin-1-yl)-2-hydroxypropoxy)-4-methylpiperidine-4-carbimidoyl chloride di-2,2,2-trifluoroacetate] | 34 µM | – | 314 | – | – |
| CN1CCN(CC(O)CO/N=C(\Cl)C2(C)CCNCC2)CC1 (centres unmarked) [ID 402, N-(2-hydroxy-3-(4-methylpiperazin-1-yl)propoxy)-4-methylpiperidine-4-carbimidoyl chloride tri-2,2,2-trifluoroacetate] | 50 µM | – | 408 | – | – |
| CCC1(/C(Cl)=N/OCC(O)CN2CCCCC2)CCNCC1 (centres unmarked) [ID 409, 4-ethyl-N-(2-hydroxy-3-(piperidin-1-yl)propoxy)piperidine-4-carbimidoyl chloride di-2,2,2-trifluoroacetate] | 25 µM | – | 255 | – | – |
| OC(CO/N=C(\Cl)C1(c2ccccn2)CCNCC1)CN1CCCCC1 (centres unmarked) [ID 415, N-(2-hydroxy-3-(piperidin-1-yl)propoxy)-4-(pyridin-2-yl)piperidine-4-carbimidoyl chloride tri-2,2,2-trifluoroacetate] | 23 µM | – | 235 | – | – |
| OC(CO/N=C(\Cl)C1(Cc2cccnc2)CCNCC1)CN1CCCCC1 (centres unmarked) [ID 419, N-(2-hydroxy-3-(piperidin-1-yl)propoxy)-4-(pyridin-3-ylmethyl)piperidine-4-carbimidoyl chloride tri-2,2,2-trifluoroacetate] | – | – | – | 12 | 387 |
| CN(C)CC/C(Cl)=N\OCC(O)CN1CCCCC1 (centres unmarked) [ID 446, 3-(dimethylamino)-N-(2-hydroxy-3-(piperidin-1-yl)propoxy)propanimidoyl chloride] | 6 µM | – | 176 | – | – |
| COCCC1(/C(Cl)=N/OCC(O)CN2CCCCC2)CCNCC1 (centres unmarked) [ID 448, N-(2-hydroxy-3-(piperidin-1-yl)propoxy)-4-(2-methoxyethyl)piperidine-4-carbimidoyl chloride di-2,2,2-trifluoroacetate] | 34 µM | – | 468 | – | – |
| OC(CON=C(Br)c1ccnnc1)CN1CCCCC1 (centres unmarked) [ID 452, N-(2-hydroxy-3-(piperidin-1-yl)propoxy)pyridazine-4-carbimidoyl bromide] | 18 µM | – | 572 | – | – |
| Cc1ncc(C(Cl)=NOCC(O)CN2CCCCC2)s1 (centres unmarked) [ID 453, N-(2-hydroxy-3-(piperidin-1-yl)propoxy)-2-methylthiazole-5-carbimidoyl chloride] | 39 µM | – | 202 | – | – |
| OC(CON=C(Cl)c1ccc(Cl)nc1)CN1CCCCC1 (centres unmarked) [ID 466, 6-chloro-N-(2-hydroxy-3-(piperidin-1-yl)propoxy)nicotinimidoyl chloride] | 18 µM | – | 221 | – | – |
| Cc1cc(C(Cl)=NOCC(O)CN2CCCCC2)on1 (centres unmarked) [ID 475, N-(2-hydroxy-3-(piperidin-1-yl)propoxy)-3-methylisoxazole-5-carbimidoyl chloride] | 24 µM | – | 354 | – | – |
| OC(CO/N=C(\Cl)C1(c2cccnc2)CCNCC1)CN1CCCCC1 (centres unmarked) [ID 492, N-(2-hydroxy-3-(piperidin-1-yl)propoxy)-4-(pyridin-3-yl)piperidine-4-carbimidoyl chloride tri-2,2,2-trifluoroacetate] | 42 µM | – | 383 | – | – |
| Cc1cc(Cl)ncc1C(Cl)=NOCC(O)CN1CCCCC1 (centres unmarked) [ID 501, 6-chloro-N-(2-hydroxy-3-(piperidin-1-yl)propoxy)-4-methylnicotinimidoyl chloride] | 19 µM | – | 128 | – | – |
| CC(O)(CON=C(Cl)c1ccc(Cl)nc1)CN1CCCCC1 (centres unmarked) [ID 502, 6-chloro-N-(2-hydroxy-2-methyl-3-(piperidin-1-yl)propoxy)nicotinimidoyl chloride] | 23 µM | – | 131 | – | – |
